Results on 46 compounds are retold here after BindingDB's records for doi:10.7270/Q2TX3CTT (Broad Institute, 2010).

This test deals with Glycogen synthase kinase-3 beta (Homo sapiens, UniProt P49841). As to the kind of experiment: concentration-response blocking of human GSK3B – biochemical, luminescence, cell-free homogeneous, retest, dose response (AID 434954).
Sequence of Glycogen synthase kinase-3 beta (P49841 whole entry): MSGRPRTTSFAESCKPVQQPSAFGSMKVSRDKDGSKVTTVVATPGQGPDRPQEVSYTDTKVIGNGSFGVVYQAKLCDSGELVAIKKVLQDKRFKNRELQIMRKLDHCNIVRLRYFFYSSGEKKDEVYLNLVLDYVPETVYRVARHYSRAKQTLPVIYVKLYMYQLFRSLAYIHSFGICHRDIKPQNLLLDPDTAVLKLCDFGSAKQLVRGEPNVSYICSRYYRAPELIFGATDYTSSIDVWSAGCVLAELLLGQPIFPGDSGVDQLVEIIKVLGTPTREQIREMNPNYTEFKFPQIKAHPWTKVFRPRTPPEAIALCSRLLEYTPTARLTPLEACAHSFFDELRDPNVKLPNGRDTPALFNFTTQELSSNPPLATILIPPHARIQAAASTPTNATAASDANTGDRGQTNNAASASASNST
What is called EC50 is the concentration that produces a half-maximal response. A lower EC50 goes with a more potent agent. Take `CCCNC(=O)c1ccc(Cl)cc1Cl` [SMR000528064]: the EC50 was over 300 µM.

`COc1ccc(C(=O)c2coc3ccc(O)cc23)cc1` [MLS001198628] displayed an EC50 of 13.2 µM. The compound `CC1=Nc2ncnn2C(c2ccco2)C1C(=O)OCc1ccccc1` (stereo unspecified) [benzyl 7-(furan-2-yl)-5-methyl-1,7-dihydro-[1,2,4]triazolo[1,5-a]pyrimidine-6-carboxylate] came in with an EC50 of 40.7 µM. The compound `Cc1ccc(-c2cc(C(=O)NCCc3ccccn3)c3ccccc3n2)c(C)c1` [SMR000264677] came in with an EC50 of over 300 µM. `c1ccc(CSc2ccc3nnc(-c4cccnc4)n3n2)cc1` [MLS000724858] yielded an EC50 of over 300 µM. On to `Cc1cccc(COc2ccc(/C=C3/C(=O)N(C)C(=S)N3C)cc2)c1` [MLS001164511], for which the EC50 was over 300 µM. In turn, `O=C(Nc1cccc2c1C(=O)NC2=O)c1cccnc1Cl` [N-[1,3-bis(oxidanylidene)isoindol-4-yl]-2-chloranyl-pyridine-3-carboxamide] came in with an EC50 of over 300 µM. For `COc1ccc(N2CC(C(=O)Nc3cc(C)ccn3)CC2=O)cc1` (stereo unspecified) [1-(4-methoxyphenyl)-N-(4-methylpyridin-2-yl)-5-oxopyrrolidine-3-carboxamide], the EC50 came out at 46.6 µM. In other words, the double-digit micromolar range. In turn, `Nc1nc(Nc2ccccc2F)sc1C(=O)c1ccccc1` [[4-amino-2-(2-fluoroanilino)-1,3-thiazol-5-yl]-phenylmethanone] returned an EC50 of 0.622 µM. Turning to `Cc1ccccc1-n1nnc2c(=O)oc3ccccc3c21` [1-(2-methylphenyl)chromeno[3,4-d]triazol-4-one], the EC50 was over 300 µM.

In the case of `Cc1ccnc(NC(=O)Cn2ccc([N+](=O)[O-])n2)c1` [N-(4-methylpyridin-2-yl)-2-(3-nitropyrazol-1-yl)ethanamide], the EC50 is over 300 µM. On to `CCOc1cc(C)cc2oc(=O)cc(-c3ccccc3)c12` [SMR000116517], for which the EC50 is over 300 µM.

On to `COc1cccc(-n2c(Cn3nc(C(F)F)cc3C(F)F)n[nH]c2=S)c1` [3-[[3,5-bis(difluoromethyl)-1-pyrazolyl]methyl]-4-(3-methoxyphenyl)-1H-1,2,4-triazole-5-thione], for which the EC50 is over 300 µM. As for `COc1cc(C=Nn2c(C3CCCCC3)n[nH]c2=S)cc(Br)c1O` [MLS001164684], the figure is 4.17 µM; as for `Cc1ccc2c(c1)cc1c(=O)n(CC(=O)NCCN3CCCC3)nc(C)n12`, over 300 µM; as for `O=C(Cc1sc(N2CCCCC2)nc1O)Nc1cccc(C(F)(F)F)c1` [MLS000570409], over 300 µM. For `Nc1nc(O)c(N=Nc2ccc(S(N)(=O)=O)cc2)c(=O)[nH]1` [SMR000543013] the value was over 300 µM; for `Cc1nc(C)c(-c2csc(Nc3ccc(C(=O)O)c(O)c3)n2)s1` [4-[[4-(2,4-dimethyl-1,3-thiazol-5-yl)-1,3-thiazol-2-yl]amino]-2-hydroxybenzoic acid], over 300 µM. As for `Cc1cc([N+](=O)[O-])c(C)cc1-c1ccc(/C=N/n2cnnc2)o1` [1-[5-(2,5-dimethyl-4-nitrophenyl)furan-2-yl]-N-(1,2,4-triazol-4-yl)methanimine], the figure is over 300 µM. `COc1ccc(Cl)cc1-c1nc(N)nc(N(C)C)n1` [MLS000698391]: the EC50 is over 300 µM. As to `Cc1c([N+](=O)[O-])c2ccc(O)cc2n1-c1ccccc1` [2-methyl-3-nitro-1-phenylindol-6-ol], the EC50 came out at 2.14 µM. The compound `CC1=Nc2ncnn2C(c2cccnc2)C1C(=O)OCc1ccccc1` (stereo unspecified) [(phenylmethyl) 5-methyl-7-pyridin-3-yl-1,7-dihydro-[1,2,4]triazolo[1,5-a]pyrimidine-6-carboxylate] came in with an EC50 of 28 µM. `CC(C)(C)Sc1ccc(CN=O)cc1[N+](=O)[O-]` [SMR000335018] gave an EC50 of 23.6 µM.

In turn, `COc1cc(C2c3c(n(Cc4ccccc4)c(=O)[nH]c3=O)N=C3CC(C)(C)CC(=O)C32)ccc1O` (stereo unspecified) displayed an EC50 of over 300 µM.

On to `CC(=O)C(Sc1ccc2nnc(-c3ccc(F)cc3)n2n1)C(C)=O` [SMR000016797], for which the EC50 is over 300 µM. As for `Nc1nc(NC2CCCCC2)nc(NCCO)c1[N+](=O)[O-]` [2-[[6-amino-2-(cyclohexylamino)-5-nitro-4-pyrimidinyl]amino]ethanol], the EC50 came to 2.16 µM. This lies in the single-digit micromolar range.

Turning to `O=C1CC(N2CCC(c3nc4ccccc4s3)CC2)C(=O)N1` (stereo unspecified) [MLS000063725], the EC50 was over 300 µM. In turn, `COc1cccc(C2c3cc4c(cc3N=C3CC(C)(C)CC(=O)C32)OCO4)c1` (stereo unspecified) [MLS000522404] displayed an EC50 of over 300 µM. For `CCN1CCN(CCCNC(=O)c2ccc3c(c2)NC(=O)c2ccccc2S3)CC1` [N-[3-(4-ethylpiperazin-1-yl)propyl]-6-oxo-5H-benzo[b][1,4]benzothiazepine-3-carboxamide], the EC50 was over 300 µM.

`CC[n+]1c(/C=C/N(C)c2ccccc2)sc2ccc(Cl)cc21` [N-[(E)-2-(5-chloro-3-ethyl-1,3-benzothiazol-3-ium-2-yl)ethenyl]-N-methylaniline;perchlorate] came in with an EC50 of 49.8 µM. In turn, `O=C(OCCCOC(=O)c1cc[n+]([O-])cc1)c1cc[n+]([O-])cc1` registered an EC50 of over 300 µM. For `COc1ccc(C)cc1S(=O)(=O)Nc1cc2c3c(c1)CCN3C(=O)CC2` [SMR000812053], the EC50 was over 300 µM. As for `Nc1nc(NCCOCCO)nc(NCc2ccccc2)c1[N+](=O)[O-]` [MLS001213400], the figure is 21.7 µM; as for `O=C(NN=Cc1ccco1)Nc1cccc(Cl)c1` [SMR000203570], 38.1 µM.

In turn, `CCOc1ccccc1NC(=O)c1nnn(-c2ccc3c(c2)OCCO3)c1N` [MLS001221013] yielded an EC50 of over 300 µM. For `COc1cccc(C2C(C(=O)OCc3ccccc3)C(C)=Nc3ncnn32)c1OC` (stereo unspecified) [(phenylmethyl) 7-(2,3-dimethoxyphenyl)-5-methyl-1,7-dihydro-[1,2,4]triazolo[1,5-a]pyrimidine-6-carboxylate] the value was 3.82 µM; for `COc1ccc(CN(CC(=O)NCc2ccccc2)C(=O)CCC(=O)Nc2cc(C)ccn2)cc1` [N-(Benzylcarbamoyl-methyl)-N-(4-methoxy-benzyl)-N'-(4-methyl-pyridin-2-yl)-succinamide], 21.3 µM. In turn, `NNC(=O)CNC(=O)c1ccc(F)cc1` gave an EC50 of over 300 µM. As to `COc1cccc2cc(C(C)=O)c(=O)oc12` [3-acetyl-8-methoxy-2H-chromen-2-one], the EC50 is over 300 µM.

As to `COCCN(CC(=O)NCc1ccc(F)cc1)C(=O)CCC(=O)Nc1ccccn1`, the EC50 was over 300 µM. In the case of `CCc1c(C)c2ccc(O)c(CN(C)C)c2oc1=O` [8-[(dimethylamino)methyl]-3-ethyl-4-methyl-7-oxidanyl-chromen-2-one], the EC50 was over 300 µM. For `CC1CCN(c2oc(-c3ccccc3Cl)nc2C#N)CC1` [SMR000041709], the EC50 was over 300 µM. With `COc1ccc(-c2nn(-c3ccccc3)cc2CN=Nc2ccc(Cl)c(C(=O)O)c2)cc1OC` [SMR000371971], the EC50 is over 300 µM. The compound `COc1cc(C(c2nnnn2C(C)(C)C)N2CCN(c3nc4ccccc4s3)CC2)ccc1O` (stereo unspecified) [MLS000027473] displayed an EC50 of over 300 µM. Regarding `CCCOC1CCCN(Cc2cn(C)nc2-c2ccccc2F)C1` (stereo unspecified) [1-[[3-(2-fluorophenyl)-1-methylpyrazol-4-yl]methyl]-3-propoxypiperidine], the EC50 was over 300 µM. With `Cn1c(=O)c2[nH]c(CN(Cc3ccccc3)Cc3ccccc3)nc2n(C)c1=O` [MLS000081398], the EC50 was over 300 µM.
